Drawing on PubChem BioAssay AID1275 (Emory University Molecular Libraries Screening Center, 2008), this text covers IC50 for 75 molecules.

Where “and” joins values, the source holds several entries; their conditions need not be identical. Equal values may be shown once. Calls of active or inactive are those of the source. The rule behind the calls is not given here.

The target in the assay is Neutrophil cytosol factor 1 (Homo sapiens) (UniProt P14598). The experiment in a line: p47phox binding inhibitors, dose response, biochemical, NADPH oxidase regulatory subunit, fluorescence polarization (AID 1275). Conditions: p47phox binding inhibition.
Sequence of Neutrophil cytosol factor 1 (Homo sapiens) (P14598 whole entry, looked up): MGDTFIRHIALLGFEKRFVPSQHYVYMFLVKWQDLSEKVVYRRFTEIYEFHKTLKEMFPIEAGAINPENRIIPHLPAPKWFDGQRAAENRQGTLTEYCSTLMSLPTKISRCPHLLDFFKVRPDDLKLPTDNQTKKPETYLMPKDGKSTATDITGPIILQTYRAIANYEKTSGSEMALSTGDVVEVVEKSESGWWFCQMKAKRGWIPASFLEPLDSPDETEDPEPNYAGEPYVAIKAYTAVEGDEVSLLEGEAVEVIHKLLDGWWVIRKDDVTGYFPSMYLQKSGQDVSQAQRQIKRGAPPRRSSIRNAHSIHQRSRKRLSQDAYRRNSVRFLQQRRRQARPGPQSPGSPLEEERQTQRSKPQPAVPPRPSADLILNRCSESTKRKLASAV
Usually IC50 stands for the concentration that inhibits the measured activity by half. Regarding `Oc1[nH]c(=S)sc1/C=C1\C(c2ccccc2)=Nc2ccccc21`, the IC50 entry is “inactive”.

On to `CCOC(=O)C1=C(c2ccccc2)NC(N)=NC1c1ccc(OCc2ccc(Cl)cc2)c(OC)c1` (stereo not given), for which the IC50 is 4.14 µM.

In the case of `CCOC(=O)c1ccc(N2C(=O)CC(Nc3ccc(O)cc3)C2=O)cc1` (stereo not given), the IC50 was 23.7 µM.

Turning to `COCc1cc(C)nc(N/N=C/c2ccc(-c3ccc(Cl)cc3[N+](=O)[O-])o2)c1C#N`, the IC50 is > 50 µM (inactive).

As to `C/C(N)=C(/C#N)C(=O)CSc1nnc(-c2ccc3c(c2)OCO3)o1`, the IC50 was > 50 µM (inactive).

As to `O=C1CCCC(O)=C1N=Nc1ccc(C(=O)O)cc1`, the IC50 was > 50 µM (inactive).

Turning to `COc1cc(/C=N/NC(=O)c2ccc(CN3c4cccc5cccc(c45)S3(=O)=O)cc2)cc(OC)c1O`, the IC50 is > 50 µM (inactive).

`COc1ccc(C2C(C(=O)c3ccccc3)=C(C)Nc3nc4ccccc4n32)cc1OC` (stereo not given): the IC50 is > 50 µM (inactive).

Consider `C[c-]1[c-](C)[c-](C)[c-](C)[c-]1C.[Fe].c1cc2nccc(N3CCCC3)[c-]2c1` (stereo not given), for which the IC50 was > 50 µM (inactive).

With `CCOc1ccc(N/C=C/C(=O)c2ccc(C)cc2)c([N+](=O)[O-])c1`, the IC50 was > 50 µM (inactive).

For the molecule `Cc1ccc(NC(=O)Cn2c(O)c(N=NC(=O)c3cc4ccccc4cc3O)c3ccccc32)cc1`, the IC50 is > 50 µM (inactive).

With `O=[N+]([O-])c1ccc(N/N=C\c2cccn2-c2ccccc2)nc1`, the IC50 was > 50 µM (inactive).

As to `CCOc1ccc2c(c1)C(c1cccs1)=NNC(c1cccnc1)=N2`, the IC50 was > 50 µM (inactive).

With `COc1ccc(-c2cn[nH]c2-c2ccc(OCc3ccc([N+](=O)[O-])cc3)cc2O)cc1`, the IC50 is > 50 µM (inactive).

For the molecule `CC1=C(C#N)c2nc(N)c(C#N)c(C)c2/C1=C\c1ccc(-c2ccccc2C(=O)O)o1`, the IC50 is 26.9 µM.

As to `Cc1cccc(N=Nc2c(C)c(C#N)c(O)[nH]c2=O)c1`, the IC50 is > 50 µM (inactive).

`N#CC1=C(N)OC2=C(CN(Cc3ccccc3)C/C2=C\c2cccnc2)C1c1cccnc1` (stereo not given): the IC50 was 3.5 µM.

For the molecule `N#CC(=C=[N-])c1nc2ccccc2nc1-[n+]1cccc(NC(=O)c2ccccc2)c1`, the concentration for half-maximal inhibition (IC50) was > 50 µM (inactive) and 24.2 µM.

For `CN(C)CC(C)(C)CN=Cc1c(O)[nH]c2ccccc12`, the IC50 is > 50 µM (inactive).

Take `Cc1nc2ccccc2n2c(O)c(CC(=O)O)cc12`: the IC50 result is “inactive”.

Consider `Cc1cc2c(C)nc(N/N=C/c3ccc([N+](=O)[O-])cc3)nc2o1`, for which the IC50 is > 50 µM (inactive).

Turning to `CC1(C)CC(=O)C2=C(C1)Nc1cc3c(cc1C2c1ccc2c(c1)OCO2)OCO3` (stereo not given), the IC50 is > 50 µM (inactive).

With `C=CCNC(=S)N1CCN(CCN=CC2=C(O)CC(c3ccco3)CC2=O)CC1` (stereo not given), the IC50 was > 50 µM (inactive).

As to `CC(C)Cc1ccc(/C(=N/O)C(=O)O)s1`, the IC50 is > 50 µM (inactive).

In the case of `O=C1Nc2ccccc2/C1=N/N=C/c1ccc(-c2ccc([N+](=O)[O-])cc2)o1`, the IC50 is > 50 µM (inactive).

As to `N#CC(=C=[N-])c1nc2ccccc2nc1-[n+]1cccc(NC(=O)c2cccs2)c1`, the IC50 is 14.8 µM.

For the molecule `Cc1cccc(NC(=O)Cn2c(O)c(N=NC(=O)c3ccccc3O)c3ccccc32)c1`, the IC50 is > 50 µM (inactive).

Regarding `O=[N+]([O-])c1ccc(N=Cc2c(O)ccc3ccccc23)cc1`, the IC50 was 4.58 µM.

As to `COC(=O)c1cc(C(=O)OC)cc(N2C(=O)CC(NNC(=O)c3ccc(C)cc3)C2=O)c1` (stereo not given), the IC50 is > 50 µM (inactive).

Consider `CC1CCCCN1C(=O)C12CCC(C)(/C(=N/O)C1)C2(C)C` (stereo not given), for which the IC50 was > 50 µM (inactive).

With `N=C1CCC(=N)c2c1c(O)c1ccccc1c2O`, the IC50 was 0.68 µM.

In the case of `CCOC(=O)C1=C(O)c2ccccc2C(=O)/C1=C\c1ccc(CC)cc1`, the IC50 was > 50 µM (inactive).

In the case of `COc1nc(N/N=C/c2ccc(-c3cccc([N+](=O)[O-])c3)o2)nc(N2CCOCC2)n1`, the IC50 was > 50 µM (inactive).

`CCOC(=O)C(=CNc1ccc(Oc2cccnc2)nc1)C(=O)OCC`: the IC50 is > 50 µM (inactive).

Regarding `C(=N\Nc1nc(Nc2ccccc2)nc(N2CCCCC2)n1)/c1ccco1`, the IC50 is > 50 µM (inactive).

With `CC(=O)N1C(=O)C2(C(C#N)=C(N)Oc3n[nH]c(-c4ccccn4)c32)c2ccccc21` (stereo not given), the IC50 is > 50 µM (inactive).

As for `CCc1cc2c(=O)nc3n(c2s1)Cc1ccccc1/C3=C(/O)c1ccccc1Cl`, the IC50 is > 50 µM (inactive).

`CC(C)N1CC2=C(OC(N)=C(C#N)C2c2cccnc2)/C(=C/c2cccnc2)C1` (stereo not given): the IC50 entry is “inactive”.

`CCN(CC)c1ccc(/C=N/c2sc3c(c2C#N)C2CCN3CC2)c(O)c1`: the IC50 is 6.96 µM.

For `CCOC(=O)C1=C(COc2ccc(C)cc2)NC(=O)NC1c1cc(C)ccc1C` (stereo not given), the IC50 was > 50 µM (inactive).

Regarding `Cn1c(O)c(/C=C2\N=c3ccccc3=C2CCNC(=S)NC2CC2)c(=O)n(C)c1=O`, the IC50 was 14.1 µM.

For `CCOc1ccc(C2CC(c3c(O)n(C)c(=O)n(C)c3=O)=NN2)cc1` (stereo not given), the IC50 was > 50 µM (inactive).

Regarding `Cc1ccc(C(=O)C2=C(O)C(=O)N(Cc3ccccc3)C2c2cccnc2)o1` (stereo not given), the IC50 was > 50 µM (inactive).

For `C/C(=N\Nc1ccc(S(N)(=O)=O)cc1[N+](=O)[O-])c1ccc2c(c1)OCO2`, the IC50 is > 50 µM (inactive).

In the case of `O=C(N=Nc1c(O)[nH]c2ccc(Cl)cc12)c1cc(-c2cccs2)nc2ccccc12`, the IC50 is > 50 µM (inactive).

In the case of `COc1ccc(-c2cnnc(N/N=C/c3ccc(-c4ccc([N+](=O)[O-])cc4)o3)n2)cc1`, the IC50 was > 50 µM (inactive).

Consider `COc1ccc(N2C(=O)CNC2=S)cc1`, for which the IC50 is > 50 µM (inactive).

On to `N#Cc1ccc(N/N=C/c2cn(-c3ccccc3)nc2-c2ccccc2)c([N+](=O)[O-])c1`, for which the IC50 is > 50 µM (inactive).

Turning to `O=c1cnnc(N/N=C/c2c[nH]c3ccccc23)[nH]1`, the IC50 was > 50 µM (inactive).

Consider `Clc1ccc(/C=N/Nc2nc(Cl)nc3ccccc23)cc1`, for which the IC50 is > 50 µM (inactive).

For the molecule `Cc1ccc(/C(CSc2nccn2-c2ncc(C(F)(F)F)cc2Cl)=N\O)cc1`, the IC50 is > 50 µM (inactive).

For `Cc1ccc(-n2c(O)c(/C=N/Nc3ccccc3)c(=O)[nH]c2=O)cc1C`, the IC50 was > 50 µM (inactive).

`Cc1ccc(/C=N/Nc2ccnc3cc(Cl)ccc23)c(C)c1`: the IC50 was > 50 µM (inactive).

For the molecule `Nc1cc(Cl)ccc1N1C(=O)CCC1=O`, the IC50 was > 50 µM (inactive).

With `O=C(Cn1c(O)c(/C=C2\C=Nc3ccc(Br)cc32)sc1=O)N1CCCC1`, the IC50 was > 50 µM (inactive).

As to `CCOC(=O)C1=C(O)CSC1=Nc1ccc(Cl)cc1`, the IC50 was > 50 µM (inactive).

On to `CCOC(=O)/C(C)=C1\NC(C)(C)Cc2ccccc21`, for which the IC50 was > 50 µM (inactive).

For `O=c1[nH]c(O)c(/C=C2/C=CC(c3cc(Cl)ccc3Cl)=N2)c(=O)[nH]1`, the IC50 is > 50 µM (inactive).

For the molecule `CCOc1ccc(N/C=C/C(=O)c2ccccc2)c([N+](=O)[O-])c1`, the IC50 was > 50 µM (inactive).

For `CCOc1ccc(-n2c(SCC(=O)Nc3ccc(Br)cc3)nc3n[nH]c(C)c3c2=N)cc1`, the IC50 was > 50 µM (inactive).

Regarding `O=C(N=Nc1c(O)[nH]c2ccc(Br)cc12)c1cc(-c2cccs2)nc2ccccc12`, the IC50 is > 50 µM (inactive).

With `Cc1ccccc1NC(=O)Cn1c(O)c(N=NC(=O)c2ccccc2O)c2ccccc21`, the IC50 is > 50 µM (inactive).

Consider `COc1ccc(C2C(C#N)=C(N)Oc3cc4c(cc32)OCO4)cc1` (stereo not given), for which the IC50 was > 50 µM (inactive).

With `COc1ccc(N=C2O/C(=C/c3sc(=S)n(CC4CCCO4)c3O)N=C2C#N)cc1` (stereo not given), the 50% inhibitory concentration (IC50) is 16 µM.

In the case of `CCN=C(Nc1ccc2c(c1)OCO2)SC1CC(=O)N(c2ccccc2F)C1=O` (stereo not given), the IC50 is > 50 µM (inactive).

As for `CC1=NN(c2ccccc2)C(=O)/C1=C/C=C/c1ccc(N(C)C)cc1`, the IC50 was > 50 µM (inactive).

With `CN(C)c1ccnc2c[cH-]cc12.[Fe].c1ccc(-[c-]2[c-](-c3ccccc3)[c-](-c3ccccc3)[c-](-c3ccccc3)[c-]2-c2ccccc2)cc1` (stereo not given), the IC50 is 13.9 µM and 2.73 µM.

Regarding `O=C(N=Nc1c(O)n(C2OC(=O)c3ccccc32)c2ccccc12)c1ccco1` (stereo not given), the IC50 was > 50 µM (inactive).

In the case of `O=C(N=Nc1c(O)n(Cc2ccccc2)c2ccccc12)c1cc2ccccc2cc1O`, the IC50 was > 50 µM (inactive).

With `O=c1oc2ccccc2c(O)c1/C=C1\C=Nc2ccccc21`, the IC50 is > 50 µM (inactive).

With `CSc1sc(C)cc1C1C(C#N)=C(N)N(c2cccnc2)C2=C1C(=O)CCC2` (stereo not given), the IC50 was > 50 µM (inactive).

`Cc1ccc(C(NC(=O)N2CCOCC2)=C(Cl)Cl)cc1F`: the IC50 is > 50 µM (inactive).

As to `O=C1OCC=C1NNC(=O)c1cccnc1`, the IC50 is > 50 µM (inactive).

`O=c1[nH]c(=S)[nH]c(O)c1N=Nc1ccc(-c2ccccc2)cc1[N+](=O)[O-]`: the IC50 is 8.05 µM.

Take `CCOC(=O)C1=C(c2ccccc2)NC(N)=NC1c1ccc(OCc2ccc(C(=O)OC)cc2)cc1` (stereo not given): the IC50 was 6.96 µM.
